Assay results from patent US10111866B2, “Compounds as rearranged during transfection (RET) inhibitors” (GLAXOSMITHKLINE INTELLECTUAL PROPERTY DEVELOPMENT LIMITED, priority 2015, dated 2018).

Legend:
TT cells = experiment: RET kinase cell-based proliferation assay (TT cells, CellTiter-Glo); details: Homo sapiens, 192 h, eight days
Method: RET Kinase Cell-Based Proliferation Assay
The potency of the compounds of the invention were tested for its ability to inhibit cell proliferation and cell viability. TT cells (ATCC CRL-1803), a medullary thyroid cancer cell line with constitutively activated RET kinase, were maintained in 150 cm^2 dishes in F12 Kaighn's medium, 10% fetal bovine serum, 1× Glutamax, 1× non-essential amino acids, 1× Pen/Strep antibiotics at 37° C. in 5% carbon dioxide. 6.0E3 TT cells/well in 50 μL of media were added to a 96-well cell culture plate and allowed to adhere overnight. 50 μL of serially diluted RET inhibitor compounds were added to 96-well plate containing cultured TT cells and incubated at 37° C. in 5% carbon dioxide for eight days. 50 μL of CellTiter-Glo (Promega #G-7573) was added, contents mixed for 1 minute on shaker followed by 10 minutes in the dark at 23° C. and the luminescence read by EnVision (PerkinElmer). IC50s were fitted using GraphPad Prism to a sigmoidal dose response.

Human RET kinase = Human RET kinase (Homo sapiens (Human), UniProt P07949); experiment: RET kinase enzymatic assay; assay type: biochemical; details: GST-RET cytoplasmic domain, HTRF readout
Method: RET Kinase Enzymatic Assay
Human RET kinase cytoplasmic domain (amino acids 658-1114 of accession number NP_000314.1) was expressed as an N-terminal GST-fusion protein using a baculovirus expression system. GST-RET was purified using glutathione sepharose chromatography. The RET kinase enzymatic assay was performed in a total volume of 10 uL with increasing concentrations of RET kinase inhibitor as a singlet in a 384 well format as follows: RET inhibitor compound plates are prepared by adding 100 nL of RET inhibitor at different concentrations to a 384-well plate. 5 μL/well of a 2× enzyme mix (50 mM HEPES (4-(2-hydroxyethyl)-1-piperazineethanesulfonic acid); 1 mM CHAPS (3-[(3-cholamidopropyl)dimethylammonio]-1-propane sulfonate); 0.1 mg/mL BSA (bovine serum albumin); 1 mM DTT (dithiothreitol); 0.2 nM RET kinase) was added to the 384-well plate and incubated for 30 minutes at 23° C. […] 10 μL/well of 2× stop/detection mix (50 mM HEPES; 0.1% BSA; 800 mM Potassium Fluoride; 50 mM EDTA (Ethylenediaminetetraacetic acid); 200× dilution of Europium Cryptate labeled anti-phosphotyrosine antibody; 62.5 nM Streptavidin-XL665) incubated for 1 hour at 23° C. and read on a Homogenous Time-Resolved Fluorescence reader. […]

Sequence of Human RET kinase (P07949 658-1114): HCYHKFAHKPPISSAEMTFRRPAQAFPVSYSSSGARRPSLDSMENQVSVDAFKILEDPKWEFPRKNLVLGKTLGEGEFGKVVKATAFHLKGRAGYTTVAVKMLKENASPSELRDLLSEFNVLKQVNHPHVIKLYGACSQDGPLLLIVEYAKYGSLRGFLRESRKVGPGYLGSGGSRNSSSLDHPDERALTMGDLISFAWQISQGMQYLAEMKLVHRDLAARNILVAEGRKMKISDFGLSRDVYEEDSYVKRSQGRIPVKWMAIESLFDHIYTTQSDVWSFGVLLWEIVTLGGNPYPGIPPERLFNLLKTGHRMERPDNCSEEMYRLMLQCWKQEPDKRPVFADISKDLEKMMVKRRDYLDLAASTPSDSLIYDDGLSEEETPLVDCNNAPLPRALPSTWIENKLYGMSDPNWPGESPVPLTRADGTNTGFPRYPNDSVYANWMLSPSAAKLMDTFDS

Row | IC50 (Human RET kinase) [µM] | Compound | IC50 (TT cells) [µM]
1 | ≤ 0.01 | CCOc1cc(=O)[nH]cc1-c1ccc(CC(=O)Nc2cc(C(=O)NCCN(C)C)cc(C(F)(F)F)c2)c(F)c1 [Example 1, N-(2-(dimethylamino)ethyl)-3-(2-(4-(4-ethoxy-6-oxo-1,6-dihydropyridin-3-yl)-2-fluorophenyl)acetamido)-5-(trifluoromethyl)benzamide] | 0.01 to 0.1
2 | ≤ 0.01 | CCOc1cc(=O)[nH]cc1-c1ccc(CC(=O)Nc2cc(OCCN(C)C)cc(C(F)(F)F)c2)c(F)c1 [Example 2, N-(3-(2-(dimethylamino)ethoxy)-5-(trifluoromethyl)phenyl)-2-(4-(4-ethoxy-6-oxo-1,6-dihydropyridin-3-yl)-2-fluorophenyl)acetamide] | 0.01 to 0.1
